# Laboratory results from patent US5445942A, “Amplification assay for hydrolase enzymes” (London Biotechnology Limited, priority 1988, dated 1995).
# Assays:
# D-amino acid oxidase = D-amino acid oxidase (Sus scrofa, UniProt P00371); details: same concentration as D-alanine (35 mM), pH 8.0
# Source text: Use of apo-D-amino acid oxidase, whose holoenzyme has a pH optimum of 8.0-9.0, allows the above assay to be conducted in a single pot:
# The above ingredients may be mixed beforehand and added directly too the alkaline phosphatase.
# apoglucose oxidase = target: T1, apoglucose oxidase (Aspergillus niger, UniProt P13006); test: Binding of FAD / FADP by apoglucose oxidase (removal of FAD traces from FADP)
# T1 construct: made in house
# Protocol: Apoglucose oxidase (2.5 μM) was mixed with FADP (200 μM) at room temperature. After 30 min the mixture was ultrafiltered to yield a sample of FADP containing less than 0.002% FAD.
# alkaline phosphatase = test: Hydrolysis of FADP by alkaline phosphatase, product checked by anion exchange elution and apoglucose oxidase reconstitution; type: biochemical; details: 10 mM Tris buffer pH 8.0, 1 mM MgCl2, 0.1 mM ZnCl2
# Source text: Crude 2'(3')-FADP was isolated by FPLC on a Mono Q HR 10/10 anion exchange column (Pharmacia) with a H2 O/1M ammonium formate (pH 6.5) gradient. The fractions eluting with 0.65-0.8M ammonium formate were pooled and freeze-dried. […] Traces of FAD could be removed by treatment with a suitable apoenzyme followed by ultrafiltration to remove the macromolecules.
# apoenzyme = test: Prosthetic-group activity of FADP and its interference with holoenzyme formation from apoenzyme and FAD; type: biochemical; details: shelf-stable apoenzymes
# Source text: In a preferred embodiment, the prosthetogen is an FAD-phosphate (FADP) and the hydrolase is a phosphatase. This procedure has the great advantage that the prosthetic group, FAD, is formed directly by action of a phosphatase enzyme on the prosthetogen, FADP, without the necessity to add any ancillary converting enzymes.
# Suitable apoenzymes include apo-D-aminoacid oxidase and apoglucose oxidase as mentioned above, as well as apo-L-aminoacid oxidase, apoxanthine oxidase and other apoenzymes which will be apparent to those skilled in the art. Apo-D-aminoacid oxidase is a preferred apoenzyme for many applications since it is very shelf-stable, and has kinetic characteristics that permits the technology to be used in a `single pot` format, with all components added as a single promix to analyte-linked alkaline phosphatase. Suitable substrates for it are D-alanine, D-methionine and D-proline. For maximising the sensitivity of the invention without incorporating tail-end cycling components (see below), the use of apoglucose oxidase is advantageous, although its use requires a two stage format in which the first stage, involving hydrolysis of FADP, is operated at pH 8.0 and the second detection stage at a lower pH.
# D-amino acid oxidase, sequence (P00371 whole entry): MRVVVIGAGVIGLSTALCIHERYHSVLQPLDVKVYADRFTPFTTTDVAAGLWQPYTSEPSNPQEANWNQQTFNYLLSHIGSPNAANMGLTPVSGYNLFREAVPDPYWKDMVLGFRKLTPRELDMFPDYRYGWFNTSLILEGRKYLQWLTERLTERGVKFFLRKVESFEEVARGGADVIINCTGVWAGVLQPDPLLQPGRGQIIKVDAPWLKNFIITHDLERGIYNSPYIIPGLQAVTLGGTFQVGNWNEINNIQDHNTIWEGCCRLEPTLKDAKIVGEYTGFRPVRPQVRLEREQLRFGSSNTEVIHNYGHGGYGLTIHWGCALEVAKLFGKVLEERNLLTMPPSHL
# T1 sequence (P13006 17-605): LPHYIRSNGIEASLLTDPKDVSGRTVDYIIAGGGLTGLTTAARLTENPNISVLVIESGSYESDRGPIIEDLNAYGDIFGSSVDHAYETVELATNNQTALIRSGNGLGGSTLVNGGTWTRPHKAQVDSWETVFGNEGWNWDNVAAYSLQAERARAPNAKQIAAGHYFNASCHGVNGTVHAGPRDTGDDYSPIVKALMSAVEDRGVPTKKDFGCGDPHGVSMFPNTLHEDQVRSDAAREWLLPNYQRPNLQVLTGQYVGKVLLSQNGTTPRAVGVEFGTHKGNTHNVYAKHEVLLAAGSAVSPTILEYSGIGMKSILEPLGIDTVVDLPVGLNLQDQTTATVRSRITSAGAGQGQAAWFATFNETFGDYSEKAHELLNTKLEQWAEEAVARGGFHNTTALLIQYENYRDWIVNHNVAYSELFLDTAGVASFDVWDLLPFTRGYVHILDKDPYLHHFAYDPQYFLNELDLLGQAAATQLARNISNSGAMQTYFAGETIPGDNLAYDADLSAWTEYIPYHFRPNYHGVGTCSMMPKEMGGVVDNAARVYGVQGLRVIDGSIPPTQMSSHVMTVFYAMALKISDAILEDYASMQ
Compound,rate of oxidation relative to D-alanine (D-amino acid oxidase),binding by apoglucose oxidase (apoglucose oxidase),hydrolysis by alkaline phosphatase (alkaline phosphatase),activity per se as a prosthetic group (apoenzyme),interference with formation of the holoenzyme from apoenzyme and FAD (apoenzyme)
CSCC[C@@H](N)C(=O)O [D-methionine],2.5,–,–,–,–
O=C(O)[C@H]1CCCN1 [D-proline],3.0,–,–,–,–
"Cc1cc2nc3c(=O)[nH]c(=O)nc-3n(C[C@H](O)[C@H](O)[C@H](O)COP(=O)(O)OP(=O)(O)OC[C@H]3O[C@@H](n4cnc5c(N)ncnc54)[C@H](O)[C@@H]3O)c2cc1C [FAD, flavin adenine dinucleotide, reference compound]",–,binds FAD tightly,–,–,–
FAD-2' (3')-Phosphate [FADP],–,does not bind FADP,acted upon by alkaline phosphatase to give a product that eluted in the same place as FAD and was able to reconstitute apoglucose oxidase,no significant activity per se as a prosthetic group,does not significantly interfere with the formation of the holoenzyme
